A word on the IC50: it is the concentration at which inhibition is half-maximal.

Experimental findings from ChEMBL document CHEMBL4152294, “Design, synthesis, structure-activity relationships study and X-ray crystallography of 3-substituted-indolin-2-one-5-carboxamide derivatives as PAK4 inhibitors” (Eur J Med Chem, 2018) are described below.

For one experiment, the system named is HCT-116. Put plainly: Antiproliferative activity against human HCT116 cells after 72 hrs by CCK8 assay. In kind it is functional, cell-based. The conditions noted are these: HCT-116, 72 h. A general note: Formazan colour is commonly taken as a measure of viable cells.
The subject of a further experiment is A549. The experiment is described as follows: Antiproliferative activity against human A549 cells after 72 hrs by CCK8 assay. In kind it is functional, cell-based. The conditions noted are these: A549, 72 h.

`Cc1nc(Nc2n[nH]c3c2CN(C(=O)N[C@H](CN(C)C)c2ccccc2)C3(C)C)c2sccc2n1` [PF-03758309]: the IC50 turned out to be 0.039 µM in the experiment with HCT-116 and 0.463 µM in the experiment on A549.
As for `Cc1nc(/C(=C2\C(=O)Nc3ccc(C(=O)N[C@H](CO)c4ccccc4)cc32)c2ccccc2)[nH]c1C`, the IC50 turned out to be 2.58 µM in the experiment on HCT-116 and 17.7 µM with A549.
Taken in the same sequence, the figures for `Cc1c[nH]c(/C(=C2\C(=O)Nc3ccc(C(=O)N[C@H](CO)c4ccccc4)cc32)c2ccccc2)n1` were 0.077 µM and 0.511 µM.
In the case of `Cc1ncc(/C=C2\C(=O)Nc3ccc(C(=O)N[C@H](CO)c4ccccc4)cc32)[nH]1`, the IC50 with HCT-116 stood at 4.09 µM; in the experiment on A549, 56.1 µM.
For the molecule `CCc1ncc(/C=C2\C(=O)Nc3ccc(C(=O)N[C@H](CO)c4ccccc4)cc32)[nH]1`, the 50% inhibitory concentration (IC50) in the experiment on HCT-116 worked out at 2.87 µM; in the experiment with A549, 29.8 µM.
The like results for `O=C1Nc2ccc(C(=O)N[C@H](CO)c3ccccc3)cc2/C1=C(/c1ncc[nH]1)c1ccccc1Cl` were, in that order, 0.635 µM and 1.28 µM.
Taken in the same sequence, the figures for `O=C1Nc2ccc(C(=O)N[C@H](CO)c3ccccc3)cc2/C1=C(/c1ncc[nH]1)c1ccccc1F` were 0.088 µM and 0.666 µM.
